Reference: ChEMBL document CHEMBL1201862, “PubChem BioAssay data set” (2004)
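Following 48 hours of exposure in 96-well plates, responses at five concentrations were used to interpolate endpoints linearly. GI50 = concentration required for 50% inhibition of growth.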 Active and inactive are the calls of the source. Cut-off read from the data, not from the text of the source: active = GI50 up to about 1.1 µM and inactive = higher.

Tests used:
Experiment in all cases: NCI tumour cell line growth inhibition, 48 h
OVCAR-8 = tested on: OVCAR-8
786-0 = tested on: 786-0
ACHN = tested on: ACHN
HOP-92 = tested on: HOP-92
SK-MEL-2 = tested on: SK-MEL-2
U-251 = tested on: U-251
UACC-62 = tested on: UACC-62
SK-MEL-5 = tested on: SK-MEL-5
HL-60 = tested on: HL-60
K562 = tested on: K562
OVCAR-3 = tested on: OVCAR-3
KM12 = tested on: KM12
NCI-H226 = tested on: NCI-H226
NCI/ADR-RES = tested on: NCI/ADR-RES
CAKI-1 = tested on: CAKI-1
DU-145 = tested on: DU-145
SK-OV-3 = tested on: SK-OV-3
HCT-116 = tested on: HCT-116
MDA-MB-435 = tested on: MDA-MB-435
T47D = tested on: T47D
HOP-62 = tested on: HOP-62
PC-3 = tested on: PC-3
HCT-15 = tested on: HCT-15
MDA-MB-231 = tested on: MDA-MB-231
MDA-N = tested on: MDA-N
M14 = tested on: M14
TK-10 = tested on: TK-10
A549 = tested on: A549
SW-620 = tested on: SW-620
BT-549 = tested on: BT-549
HT-29 = tested on: HT-29
HCC 2998 = tested on: HCC 2998
MOLT-4 = tested on: MOLT-4
LOX IMVI = tested on: LOX IMVI
SNB-75 = tested on: SNB-75
COLO 205 = tested on: COLO 205
A498 = tested on: A498
NCI-H522 = tested on: NCI-H522
RPMI-8226 = tested on: RPMI-8226
MCF7 = tested on: MCF7
SN12C = tested on: SN12C
EKVX = tested on: EKVX
NCI-H460 = tested on: NCI-H460
UACC-257 = tested on: UACC-257
CCRF-CEM = tested on: CCRF-CEM
Hs-578T = tested on: Hs-578T
SF-268 = tested on: SF-268
OVCAR-5 = tested on: OVCAR-5
SNB-19 = tested on: SNB-19
IGROV-1 = tested on: IGROV-1
OVCAR-4 = tested on: OVCAR-4
UO-31 = tested on: UO-31
SF-295 = tested on: SF-295
NCI-H23 = tested on: NCI-H23
SK-MEL-28 = tested on: SK-MEL-28
RXF 393 = tested on: RXF 393
Malme-3M = tested on: Malme-3M
SF-539 = tested on: SF-539

CC(C)[C@H](NC(=O)[C@H](N)Cc1ccc(N(CCCl)CCCl)cc1)C(=O)O
GI50 (OVCAR-8): > 100 µM (inactive) | GI50 (786-0): > 100 µM (inactive) | GI50 (ACHN): > 100 µM (inactive) | GI50 (HOP-92): 9.82 µM (inactive) | GI50 (SK-MEL-2): > 100 µM (inactive) | GI50 (U-251): > 100 µM (inactive) | GI50 (UACC-62): > 100 µM (inactive) | GI50 (SK-MEL-5): > 100 µM (inactive) | GI50 (HL-60): > 100 µM (inactive) | GI50 (K562): > 100 µM (inactive) | GI50 (OVCAR-3): > 100 µM (inactive) | GI50 (KM12): > 100 µM (inactive) | GI50 (NCI-H226): > 100 µM (inactive) | GI50 (NCI/ADR-RES): > 100 µM (inactive) | GI50 (CAKI-1): > 100 µM (inactive) | GI50 (DU-145): > 100 µM (inactive) | GI50 (SK-OV-3): > 100 µM (inactive) | GI50 (HCT-116): > 100 µM (inactive) | GI50 (MDA-MB-435): > 100 µM (inactive) | GI50 (T47D): > 100 µM (inactive) | GI50 (HOP-62): > 100 µM (inactive) | GI50 (PC-3): > 100 µM (inactive) | GI50 (HCT-15): > 100 µM | GI50 (MDA-MB-231): > 100 µM (inactive) | GI50 (MDA-N): > 100 µM (inactive) | GI50 (M14): > 100 µM (inactive) | GI50 (TK-10): > 100 µM (inactive) | GI50 (A549): > 100 µM (inactive) | GI50 (SW-620): > 100 µM (inactive) | GI50 (BT-549): > 100 µM (inactive) | GI50 (HT-29): > 100 µM (inactive) | GI50 (HCC 2998): > 100 µM (inactive) | GI50 (MOLT-4): 29.3 µM (inactive) | GI50 (LOX IMVI): > 100 µM (inactive) | GI50 (SNB-75): > 100 µM (inactive) | GI50 (COLO 205): > 100 µM (inactive) | GI50 (A498): > 100 µM (inactive) | GI50 (NCI-H522): > 100 µM (inactive) | GI50 (RPMI-8226): > 100 µM (inactive) | GI50 (MCF7): > 100 µM (inactive) | GI50 (SN12C): > 100 µM (inactive) | GI50 (EKVX): > 100 µM (inactive) | GI50 (NCI-H460): > 100 µM (inactive) | GI50 (UACC-257): > 100 µM (inactive) | GI50 (CCRF-CEM): 78.7 µM (inactive) | GI50 (Hs-578T): > 100 µM (inactive) | GI50 (SF-268): > 100 µM (inactive) | GI50 (OVCAR-5): > 100 µM (inactive) | GI50 (SNB-19): > 100 µM (inactive) | GI50 (IGROV-1): > 100 µM (inactive) | GI50 (OVCAR-4): > 100 µM (inactive) | GI50 (UO-31): > 100 µM (inactive) | GI50 (SF-295): > 100 µM (inactive) | GI50 (NCI-H23): > 100 µM (inactive) | GI50 (SK-MEL-28): > 100 µM (inactive) | GI50 (RXF 393): > 100 µM (inactive) | GI50 (Malme-3M): > 100 µM (inactive)

Cc1cn(C2CC(n3cc(Cn4cc(Br)c(=O)[nH]c4=O)nn3)C(CO)O2)c(=O)[nH]c1=O (centres undefined)
GI50 (OVCAR-8): 13 µM (inactive) | GI50 (786-0): 93.1 µM (inactive) | GI50 (ACHN): > 100 µM (inactive) | GI50 (HOP-92): 20.4 µM (inactive) | GI50 (SK-MEL-2): > 100 µM (inactive) | GI50 (U-251): 39.1 µM (inactive) | GI50 (UACC-62): > 100 µM (inactive) | GI50 (SK-MEL-5): 89.5 µM (inactive) | GI50 (HL-60): 0.0395 µM (active) | GI50 (OVCAR-3): > 100 µM (inactive) | GI50 (KM12): 47.3 µM (inactive) | GI50 (NCI/ADR-RES): 68.2 µM (inactive) | GI50 (CAKI-1): > 100 µM (inactive) | GI50 (DU-145): > 100 µM (inactive) | GI50 (SK-OV-3): 63.2 µM (inactive) | GI50 (HCT-116): 52.5 µM (inactive) | GI50 (MDA-MB-435): 42.1 µM (inactive) | GI50 (T47D): > 100 µM (inactive) | GI50 (HOP-62): > 100 µM (inactive) | GI50 (PC-3): > 100 µM (inactive) | GI50 (HCT-15): > 100 µM | GI50 (MDA-MB-231): > 100 µM (inactive) | GI50 (MDA-N): 62.2 µM (inactive) | GI50 (M14): > 100 µM (inactive) | GI50 (TK-10): > 100 µM (inactive) | GI50 (A549): > 100 µM (inactive) | GI50 (SW-620): > 100 µM (inactive) | GI50 (BT-549): > 100 µM (inactive) | GI50 (HCC 2998): > 100 µM (inactive) | GI50 (MOLT-4): 30.7 µM (inactive) | GI50 (LOX IMVI): > 100 µM (inactive) | GI50 (SNB-75): 60.5 µM (inactive) | GI50 (COLO 205): > 100 µM (inactive) | GI50 (A498): > 100 µM (inactive) | GI50 (RPMI-8226): 52.6 µM (inactive) | GI50 (MCF7): > 100 µM (inactive) | GI50 (SN12C): > 100 µM (inactive) | GI50 (EKVX): > 100 µM (inactive) | GI50 (UACC-257): > 100 µM (inactive) | GI50 (CCRF-CEM): 0.668 µM (active) | GI50 (SF-539): > 100 µM (inactive) | GI50 (Hs-578T): > 100 µM (inactive) | GI50 (SF-268): > 100 µM (inactive) | GI50 (OVCAR-5): > 100 µM (inactive) | GI50 (SNB-19): 37.8 µM (inactive) | GI50 (IGROV-1): 80 µM (inactive) | GI50 (OVCAR-4): > 100 µM (inactive) | GI50 (UO-31): 88.1 µM (inactive) | GI50 (SF-295): 41.9 µM (inactive) | GI50 (NCI-H23): > 100 µM (inactive) | GI50 (SK-MEL-28): > 100 µM (inactive) | GI50 (RXF 393): > 100 µM (inactive) | GI50 (Malme-3M): > 100 µM (inactive)

C[C@H](CCC(=O)O)[C@H]1CC[C@H]2[C@@H]3[C@H](O)[C@H](O)[C@@H]4C[C@H](O)CC[C@]4(C)[C@H]3CC[C@]12C [HYOCHOLIC ACID]
GI50 (OVCAR-8): > 100 µM (inactive) | GI50 (786-0): > 100 µM (inactive) | GI50 (ACHN): > 100 µM (inactive) | GI50 (HOP-92): > 100 µM (inactive) | GI50 (SK-MEL-2): > 100 µM (inactive) | GI50 (U-251): > 100 µM (inactive) | GI50 (UACC-62): > 100 µM (inactive) | GI50 (HL-60): > 100 µM (inactive) | GI50 (K562): > 100 µM (inactive) | GI50 (KM12): > 100 µM (inactive) | GI50 (NCI-H226): > 100 µM (inactive) | GI50 (NCI/ADR-RES): > 100 µM (inactive) | GI50 (CAKI-1): > 100 µM (inactive) | GI50 (DU-145): > 100 µM (inactive) | GI50 (HCT-116): > 100 µM (inactive) | GI50 (MDA-MB-435): > 100 µM (inactive) | GI50 (T47D): > 100 µM (inactive) | GI50 (HOP-62): > 100 µM (inactive) | GI50 (PC-3): > 100 µM (inactive) | GI50 (HCT-15): > 100 µM | GI50 (MDA-MB-231): > 100 µM (inactive) | GI50 (MDA-N): > 100 µM (inactive) | GI50 (M14): > 100 µM (inactive) | GI50 (TK-10): > 100 µM (inactive) | GI50 (A549): > 100 µM (inactive) | GI50 (SW-620): > 100 µM (inactive) | GI50 (BT-549): > 100 µM (inactive) | GI50 (HT-29): > 100 µM (inactive) | GI50 (HCC 2998): > 100 µM (inactive) | GI50 (MOLT-4): > 100 µM (inactive) | GI50 (LOX IMVI): 30.2 µM (inactive) | GI50 (SNB-75): > 100 µM (inactive) | GI50 (COLO 205): > 100 µM (inactive) | GI50 (A498): > 100 µM (inactive) | GI50 (NCI-H522): > 100 µM (inactive) | GI50 (RPMI-8226): > 100 µM (inactive) | GI50 (MCF7): > 100 µM (inactive) | GI50 (SN12C): > 100 µM (inactive) | GI50 (EKVX): > 100 µM (inactive) | GI50 (NCI-H460): > 100 µM (inactive) | GI50 (UACC-257): > 100 µM (inactive) | GI50 (CCRF-CEM): > 100 µM (inactive) | GI50 (SF-539): > 100 µM (inactive) | GI50 (Hs-578T): > 100 µM (inactive) | GI50 (SF-268): > 100 µM (inactive) | GI50 (OVCAR-5): > 100 µM (inactive) | GI50 (SNB-19): > 100 µM (inactive) | GI50 (IGROV-1): > 100 µM (inactive) | GI50 (OVCAR-4): > 100 µM (inactive) | GI50 (UO-31): > 100 µM (inactive) | GI50 (NCI-H23): > 100 µM (inactive) | GI50 (SK-MEL-28): > 100 µM (inactive) | GI50 (RXF 393): > 100 µM (inactive) | GI50 (Malme-3M): > 100 µM (inactive)
